# What was measured:
# Format in all cases: in vivo
# [1] = test system: Alopecurus myosuroides (ALOMY); assay: Pre-emergence herbicidal glasshouse test on Alopecurus myosuroides; settings: pre-emergence; 1000 g/h; evaluated after 13 days
# In short: (§1)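 Steps: sow seeds in standard soil; cultivate 1 d (pre-) or 8 d (post-emergence) at 24/16 °C, 14 h light, 65% humidity; spray 1000 g/h in acetone/water plus Tween 20; grow on, watering twice daily; score percentage damage after 13 d.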
# Setaria faberi (SETFA) [2] = assay: Pre-emergence herbicidal glasshouse test on Setaria faberi; settings: pre-emergence; 1000 g/h; evaluated after 13 days
# In short: as §1
# [3] = test system: Echinochloa crus-galli (ECHCG); assay: Pre-emergence herbicidal glasshouse test on Echinochloa crus-galli; settings: pre-emergence; 1000 g/h; evaluated after 13 days
# In short: as §1
# Solanum nigrum (SOLNI) [4] = assay: Pre-emergence herbicidal glasshouse test on Solanum nigrum; settings: pre-emergence; 1000 g/h; evaluated after 13 days
# In short: as §1
# [5] = test system: Amaranthus retoflexus (AMARE); assay: Pre-emergence herbicidal glasshouse test on Amaranthus retoflexus; settings: pre-emergence; 1000 g/h; evaluated after 13 days
# In short: as §1
# [6] = test system: Ipomoea hederacea (IPOHE); assay: Pre-emergence herbicidal glasshouse test on Ipomoea hederacea; settings: pre-emergence; 1000 g/h; evaluated after 13 days
# In short: as §1
# [7] = test system: Alopecurus myosuroides (ALOMY); assay: Post-emergence herbicidal glasshouse test on Alopecurus myosuroides; settings: post-emergence; 1000 g/h; evaluated after 13 days
# In short: as §1
# Setaria faberi (SETFA) [8] = assay: Post-emergence herbicidal glasshouse test on Setaria faberi; settings: post-emergence; 1000 g/h; evaluated after 13 days
# In short: as §1
# [9] = test system: Echinochloa crus-galli (ECHCG); assay: Post-emergence herbicidal glasshouse test on Echinochloa crus-galli; settings: post-emergence; 1000 g/h; evaluated after 13 days
# In short: as §1
# Solanum nigrum (SOLNI) [10] = assay: Post-emergence herbicidal glasshouse test on Solanum nigrum; settings: post-emergence; 1000 g/h; evaluated after 13 days
# In short: as §1
# [11] = test system: Amaranthus retoflexus (AMARE); assay: Post-emergence herbicidal glasshouse test on Amaranthus retoflexus; settings: post-emergence; 1000 g/h; evaluated after 13 days
# In short: as §1
# [12] = test system: Ipomoea hederacea (IPOHE); assay: Post-emergence herbicidal glasshouse test on Ipomoea hederacea; settings: post-emergence; 1000 g/h; evaluated after 13 days
# In short: as §1
SMILES,PRE Application ALOMY herbicidal damage (five point scale) [1],PRE Application SETFA herbicidal damage (five point scale) (Setaria faberi (SETFA) [2]),PRE Application ECHCG herbicidal damage (five point scale) [3],PRE Application SOLNI herbicidal damage (five point scale) (Solanum nigrum (SOLNI) [4]),PRE Application AMARE herbicidal damage (five point scale) [5],PRE Application IPOHE herbicidal damage (five point scale) [6],POST Application ALOMY herbicidal damage (five point scale) [7],POST Application SETFA herbicidal damage (five point scale) (Setaria faberi (SETFA) [8]),POST Application ECHCG herbicidal damage (five point scale) [9],POST Application SOLNI herbicidal damage (five point scale) (Solanum nigrum (SOLNI) [10]),POST Application AMARE herbicidal damage (five point scale) [11],POST Application IPOHE herbicidal damage (five point scale) [12]
Cn1ncc(-c2c(Cl)cccc2Cl)c(O)c1=O [Compound 1.118],1 (1=0-19% damage),1 (1=0-19% damage),1 (1=0-19% damage),1 (1=0-19% damage),1 (1=0-19% damage),1 (1=0-19% damage),1 (1=0-19% damage),1 (1=0-19% damage),2 (2=20-39% damage),3 (3=40-59% damage),4 (4=60-79% damage),2 (2=20-39% damage)
C=CCn1ncc(-c2ccccc2S(C)(=O)=O)c(O)c1=O [Compound 2.001],5 (5=80-100% damage),5 (5=80-100% damage),5 (5=80-100% damage),5 (5=80-100% damage),5 (5=80-100% damage),5 (5=80-100% damage),5 (5=80-100% damage),5 (5=80-100% damage),5 (5=80-100% damage),5 (5=80-100% damage),5 (5=80-100% damage),5 (5=80-100% damage)
Cn1ncc(-c2ccc(C(F)(F)F)cc2S(=O)(=O)N2CCOCC2)c(O)c1=O [Compound 2.049],1 (1=0-19% damage),2 (2=20-39% damage),5 (5=80-100% damage),5 (5=80-100% damage),5 (5=80-100% damage),4 (4=60-79% damage),1 (1=0-19% damage),1 (1=0-19% damage),5 (5=80-100% damage),5 (5=80-100% damage),5 (5=80-100% damage),5 (5=80-100% damage)
COCCOc1c(S(C)(=O)=O)ccc(-c2cnn(C)c(=O)c2O)c1Cl [Compound 1.034],2 (2=20-39% damage),5 (5=80-100% damage),5 (5=80-100% damage),5 (5=80-100% damage),5 (5=80-100% damage),3 (3=40-59% damage),4 (4=60-79% damage),5 (5=80-100% damage),5 (5=80-100% damage),5 (5=80-100% damage),5 (5=80-100% damage),5 (5=80-100% damage)
COCn1ncc(-c2ccc(S(C)(=O)=O)c(C3=NOCC3)c2C)c(O)c1=O [Compound 1.001],5 (5=80-100% damage),5 (5=80-100% damage),5 (5=80-100% damage),5 (5=80-100% damage),5 (5=80-100% damage),5 (5=80-100% damage),5 (5=80-100% damage),5 (5=80-100% damage),5 (5=80-100% damage),5 (5=80-100% damage),5 (5=80-100% damage),5 (5=80-100% damage)
